Columns and labels:
[1] = test system: New Zealand white rabbits; assay: Intraocular pressure (IOP) after topical application to the rabbit eye; assay type: in vivo; conditions: for IOP: mean ± S.E.
[2] = test system: New Zealand white rabbits; assay: Pupil diameter / mydriasis after topical application to the rabbit eye; assay type: in vivo; conditions: for Pupil Diameter: mean ± S.E.
Protocol: These diastereomers were administered topically as either 1% or 2% solutions in buffered saline. Pupillary diameter and IOP were measured in all animals over a six hour time period during the day to minimize diurnal variations in IOP and pupil diameter.
The experiments were performed on adult male New Zealand white rabbits weighing 3.0–6.0 kg. All rabbits were caged individually and maintained on a 12 hr/12 hr light/dark schedule with free access to food and water. All animal procedures were in conformity with the ARVO Resolution on the Use and Care of Animals in Research. All treated rabbits had served as controls by having received a saline treatment on a different day.
Only one eye received drug treatment. The contralateral eye served as a control. Saline (or PBS) and drug treated rabbits were treated and observed simultaneously. A single dose was given at time zero and IOP and pupil diameter measured at −1.0, −0.5, 0.5, 1, 3 and 5 hrs post-treatment.
Pupil diameter was measured visually at the point of the greatest horizontal diameter with a transparent millimeter ruler. All measurements were made under the identical ambient lighting conditions.
Mean and Standard Error values were used to construct time-response and dose-response curves for the treated and contralateral eye of research rabbits. The data were analyzed statistically by an analysis of variance and a Bonferoni's test for significance. P<0.05 was the accepted level of significance.

Swiss-Webster mice [3] = assay: Locomotor stimulant and depressant effects in mice; conditions: i.p.
Swiss-Webster mice [4] = assay: H1 receptor antagonist (triprolidine) interaction study, locomotor activity in mice; conditions: mice pretreated with triprolidine 20 min before the test compound
[5] = 1% topical, drug treated eye (T), 0.5 hr
[6] = 1% topical, drug treated eye (T), 1 hr
[7] = 1% topical, drug treated eye (T), 3 hr
[8] = 1% topical, drug treated eye (T), 5 hr
[9] = 1% topical, drug treated eye (T), −0.5 hr (pre-treatment)
[10] = 1% topical, drug treated eye (T), −1 hr (pre-treatment)
[11] = 1% topical, untreated contralateral eye (U), 0.5 hr
[12] = 1% topical, untreated contralateral eye (U), 1 hr
[13] = 1% topical, untreated contralateral eye (U), 3 hr
[14] = 1% topical, untreated contralateral eye (U), 5 hr
[15] = 1% topical, untreated contralateral eye (U), −0.5 hr (pre-treatment)
[16] = 1% topical, untreated contralateral eye (U), −1 hr (pre-treatment)
[17] = 2% topical, drug treated eye (T), 0.5 hr
[18] = 2% topical, drug treated eye (T), 1 hr
[19] = 2% topical, drug treated eye (T), 3 hr
[20] = 2% topical, drug treated eye (T), 5 hr
[21] = 2% topical, drug treated eye (T), −0.5 hr (pre-treatment)
[22] = 2% topical, drug treated eye (T), −1 hr (pre-treatment)
[23] = 2% topical, untreated contralateral eye (U), 0.5 hr
[24] = 2% topical, untreated contralateral eye (U), 1 hr
[25] = 2% topical, untreated contralateral eye (U), 3 hr
[26] = 2% topical, untreated contralateral eye (U), 5 hr
[27] = 2% topical, untreated contralateral eye (U), −0.5 hr (pre-treatment)
[28] = 2% topical, untreated contralateral eye (U), −1 hr (pre-treatment)
[29] = — denotes absence of significant effect

Substance: (−)-norpseudoephedrine
- effect on IOP (result in words) ([1]; 1% or 2% topical, rabbit): accompanying increase in IOP
- IOP [1, 5]: 17 ± 1.0 mmHg
- IOP [1, 6]: 17 ± 1.5 mmHg
- IOP [1, 7]: 21 ± 1.6 mmHg
- IOP [1, 8]: 18 ± 1.0 mmHg
- IOP [1, 9]: 18 ± 1.6 mmHg
- IOP [1, 10]: 17 ± 1.0 mmHg
- IOP [1, 11]: 21 ± 1.0 mmHg
- IOP [1, 12]: 18 ± 1.6 mmHg
- IOP [1, 13]: 20 ± 1.9 mmHg
- IOP [1, 14]: 23 ± 0.9 mmHg
- IOP [1, 15]: 20 ± 1.7 mmHg
- IOP [1, 16]: 17 ± 1.5 mmHg
- IOP [1, 17]: 15 ± 0.5 mmHg
- IOP [1, 18]: 18 ± 0.7 mmHg
- IOP [1, 19]: 18 ± 1.1 mmHg
- IOP [1, 20]: 18 ± 1.4 mmHg
- IOP [1, 21]: 15 ± 0.9 mmHg
- IOP [1, 22]: 16 ± 1.9 mmHg
- IOP [1, 23]: 16 ± 1.2 mmHg
- IOP [1, 24]: 19 ± 1.2 mmHg
- IOP [1, 25]: 22 ± 1.5 mmHg
- IOP [1, 26]: 21 ± 1.1 mmHg
- IOP [1, 27]: 17 ± 0.7 mmHg
- IOP [1, 28]: 16 ± 1.0 mmHg
- mydriasis / pupil diameter (result in words) ([2]; 1% or 2% topical, rabbit): significant mydriasis
- Mydriatic Responses, TREATED EYE ([2]; 1% topical): + (+ = 0–2 mm change)
- Mydriatic Responses, UNTREATED EYE ([2]; 1% topical): + (+ = 0–2 mm change)
- Pupil Diameter [2, 5]: 6 ± 0.2 mm
- Pupil Diameter [2, 6]: 6 ± 0.2 mm
- Pupil Diameter [2, 7]: 6 ± 0.2 mm
- Pupil Diameter [2, 8]: 6 ± 0.2 mm
- Pupil Diameter [2, 9]: 5 ± 0.2 mm
- Pupil Diameter [2, 10]: 5 ± 0.2 mm
- Pupil Diameter [2, 11]: 6 ± 0.2 mm
- Pupil Diameter [2, 12]: 6 ± 0.2 mm
- Pupil Diameter [2, 13]: 6 ± 0.2 mm
- Pupil Diameter [2, 14]: 6 ± 0.2 mm
- Pupil Diameter [2, 15]: 5 ± 0.2 mm
- Pupil Diameter [2, 16]: 5 ± 0.2 mm
- Mydriatic Responses, TREATED EYE ([2]; 2% topical): ++ (++ = 2–4 mm change)
- Mydriatic Responses, UNTREATED EYE ([2]; 2% topical): ++ (++ = 2–4 mm change)
- Pupil Diameter [2, 17]: 9 ± 0.4 mm
- Pupil Diameter [2, 18]: 9 ± 0.4 mm
- Pupil Diameter [2, 19]: 9 ± 0.4 mm
- Pupil Diameter [2, 20]: 9 ± 0.4 mm
- Pupil Diameter [2, 21]: 6 ± 0.4 mm
- Pupil Diameter [2, 22]: 6 ± 0.4 mm
- Pupil Diameter [2, 23]: 9 ± 0.4 mm
- Pupil Diameter [2, 24]: 9 ± 0.4 mm
- Pupil Diameter [2, 25]: 9 ± 0.4 mm
- Pupil Diameter [2, 26]: 9 ± 0.4 mm
- Pupil Diameter [2, 27]: 6 ± 0.4 mm
- Pupil Diameter [2, 28]: 6 ± 0.4 mm
- Depression Time: 30-min period following injection in which the maximal depression occurred (Swiss-Webster mice [3]): 10 to 40 min
- Stimulation Time: 30-min period following injection in which the maximal stimulant effect occurred (Swiss-Webster mice [3]): 40 to 70 min
- locomotor depressant effects, time course (result in words) (Swiss-Webster mice [3]): locomotor depression at an earlier time (10–40 minutes following injection) and with a lower dose range
- locomotor stimulant effects, time course (result in words) (Swiss-Webster mice [3]): Dose-dependent increases in locomotor activity of slower onset and longer duration
- Depression Potency: dose resulting in ½ the maximal depressant effect (ID50) (Swiss-Webster mice [3]; [29]): 3.9 mg/kg
- Stimulation Potency: dose resulting in ½ the maximal stimulant effect (ID50) (Swiss-Webster mice [3]; [29]): 51.1 mg/kg
- effect of triprolidine pretreatment on stimulant or depressant effects (Swiss-Webster mice [4]): Significant effects for pretreatment with triprolidine
